Measured values published in patent publication US8937080B2, “Pyrimidine substituted macrocyclic HCV inhibitors” (Medivir AB, priority 2007, dated 2015).
Read-outs that look alike come from different tables or passages of the source.

Key:
[1] = rcm bond, 14-membered ring, Hoveyda-Grubbs II, DCE, 16.0 h
[2] = system: HCV replicons (wild type NS3-NS5B regions of HCV type 1b) in Huh-7 luc/neo cells; test: Replicon assay (Huh-Luc cells, luciferase readout); format: cell-based; conditions: Hepatitis C virus, Huh-7, 72 h, incubation of three days, luciferase activity
Description: The compounds of formula (I) were examined for activity in the inhibition of HCV RNA replication in a cellular assay. […] The cellular assay was based on a bicistronic expression construct, as described by Lohmann et al. (1999) Science vol. 285 pp. 110-113 with modifications described by Krieger et al. (2001) Journal of Virology 75: 4614-4624, in a multi-target screening strategy. In essence, the method was as follows.
The assay utilized the stably transfected cell line Huh-7 luc/neo (hereafter referred to as Huh-Luc). This cell line harbors an RNA encoding a bicistronic expression construct comprising the wild type NS3-NS5B regions of HCV type 1b translated from an Internal Ribosome Entry Site (IRES) from encephalomyocarditis virus (EMCV), preceded by a reporter portion (FfL-luciferase), and a selectable marker portion (neo^R, neomycine phosphotransferase). The construct is bordered by 5′ and 3′ NTRs (non-translated regions) from HCV type 1b. Continued culture of the replicon cells in the presence of G418 (neo^R) is dependent on the replication of the HCV RNA. The stably transfected replicon cells that express HCV RNA, which replicates autonomously and to high levels, encoding inter alia luciferase, are used for screening the antiviral compounds.
The replicon cells were plated in 384 well plates in the presence of the test and control compounds which were added in various concentrations. Following an incubation of three days, HCV replication was measured by assaying luciferase activity (using standard luciferase assay substrates and reagents and a Perkin Elmer ViewLux™ ultraHTS microplate imager). Replicon cells in the control cultures have high luciferase expression in the absence of any inhibitor. The inhibitory activity of the compound on luciferase activity was monitored on the Huh-Luc cells, enabling a dose-response curve for each test compound. EC50 values were then calculated, which value represents the amount of the compound required to decrease by 50% the level of detected luciferase activity, or more specifically, the ability of the genetically linked HCV replicon RNA to replicate.

[3] = molecular target: HCV NS3/4A protease complexes (full-length hepatitis C NS3 protease enzyme with NS4A cofactor) (Hepatitis C virus genotype 1a, UniProt P27958); test: Inhibition assay (enzymatic assay, depsipeptide substrate hydrolysis); format: biochemical; conditions: enzyme 1 nM, 25 μM NS4A cofactor, 0.5 μM substrate, 30° C., competitive inhibition model
Method: The aim of this in vitro assay is to measure the inhibition of HCV NS3/4A protease complexes by the compounds of the present invention. This assay provides an indication of how effective compounds of the present invention would be in inhibiting HCV NS3/4A proteolytic activity.
The inhibition of full-length hepatitis C NS3 protease enzyme was measured essentially as described in Poliakov, 2002 Prot Expression & Purification 25 363 371. Briefly, the hydrolysis of a depsipeptide substrate, Ac-DED(Edans)EEAbuψ[COO]ASK(Dabcyl)-NH2 (AnaSpec, San José, USA), was measured spectrofluorometrically in the presence of a peptide cofactor, KKGSVVIVGRIVLSGK (Åke Engström, Department of Medical Biochemistry and Microbiology, Uppsala University, Sweden). [Landro, 1997 #Biochem 36 9340-9348]. The enzyme (1 nM) was incubated in 50 mM HEPES, pH 7.5, 10 mM DTT, 40% glycerol, 0.1% n-octyl-D-glucoside, with 25 μM NS4A cofactor and inhibitor at 30° C. for 10 min, whereupon the reaction was initiated by addition of 0.5 μM substrate. Inhibitors were dissolved in DMSO, sonicated for 30 sec. and vortexed. The solutions were stored at −20° C. between measurements.
The final concentration of DMSO in the assay sample was adjusted to 3.3%. The rate of hydrolysis was corrected for inner filter effects according to published procedures.
[Liu, 1999 Analytical Biochemistry 267 331-335]. Ki values were estimated by non-linear regression analysis (GraFit, Erithacus Software, Staines, MX, UK), using a model for competitive inhibition and a fixed value for Km (0.15 μM). A minimum of two replicates was performed for all measurements.

[4] = from C=CCCCCN(C)C(=O)C1CC(Oc2ccnc(-c3ccccc3)n2)CC1C(=O)NC1(C(=O)NS(=O)(=O)C2CC2)CC1C=C; rcm bond; 14-membered ring; Hoveyda-Grubbs II; 150.0 °C; 0.17 h

HCV NS3/4A protease complexes (full-length hepatitis C NS3 protease enzyme with NS4A cofactor), sequence (P27958 1027-1657, other chains not shown): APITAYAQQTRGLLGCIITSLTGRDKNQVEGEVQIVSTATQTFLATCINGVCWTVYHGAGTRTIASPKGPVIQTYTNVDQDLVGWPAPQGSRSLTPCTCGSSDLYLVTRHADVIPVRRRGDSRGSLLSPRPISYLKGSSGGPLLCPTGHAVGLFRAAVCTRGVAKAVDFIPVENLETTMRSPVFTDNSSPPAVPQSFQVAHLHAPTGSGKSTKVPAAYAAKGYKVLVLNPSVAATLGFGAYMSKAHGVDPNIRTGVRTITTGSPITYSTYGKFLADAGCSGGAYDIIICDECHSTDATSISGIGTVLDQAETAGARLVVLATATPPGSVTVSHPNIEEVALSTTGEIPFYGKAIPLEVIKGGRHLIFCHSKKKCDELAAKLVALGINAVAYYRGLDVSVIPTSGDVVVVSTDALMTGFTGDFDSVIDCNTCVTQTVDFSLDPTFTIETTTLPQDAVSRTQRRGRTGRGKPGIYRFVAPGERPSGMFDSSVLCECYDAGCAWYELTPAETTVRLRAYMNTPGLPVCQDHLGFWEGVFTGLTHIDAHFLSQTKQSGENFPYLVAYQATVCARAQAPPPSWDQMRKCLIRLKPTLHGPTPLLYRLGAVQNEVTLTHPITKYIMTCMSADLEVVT

CCOC(=O)C12CC1C=CCCCCN(C)C(=O)C1CC(Oc3cc(C(C)(C)C)nc(OC)n3)CC1C(=O)N2 (stereo not drawn)
ring closure, isolated yield ([1]; from C=CCCCCN(C)C(=O)C1CC(Oc2cc(C(C)(C)C)nc(OC)n2)CC1C(=O)NC1(C(=O)OCC)CC1C=C, 1.74 mM): 74%

CCOC(=O)C12CC1C=CCCCCN(C)C(=O)C1CC(Oc3cc(OC)nc(-c4ccccc4)n3)CC1C(=O)N2 (stereo not drawn)
ring closure, isolated yield ([1]; from C=CCCCCN(C)C(=O)C1CC(Oc2cc(OC)nc(-c3ccccc3)n2)CC1C(=O)NC1(C(=O)OCC)CC1C=C, 1.69 mM): 38%

CCOC(=O)C12CC1C=CCCCCN(C)C(=O)C1CC(Oc3cc(OC)nc(OC)n3)CC1C(=O)N2 (stereo not drawn)
ring closure, isolated yield ([1]; from C=CCCCCN(C)C(=O)C1CC(Oc2cc(OC)nc(OC)n2)CC1C(=O)NC1(C(=O)OCC)CC1C=C, 1.91 mM): 49%

CN1CCCCC=CC2CC2(C(=O)NS(=O)(=O)C2CC2)NC(=O)C2CC(Oc3ccnc(-c4ccccc4)n3)CC2C1=O (stereo not drawn) [Example 10, Cyclopropanesulfonic acid [13-methyl-2,14-dioxo-17-(2-phenylpyrimidin-4-yloxy)-3,13-diaza-tricyclo[13.3.0.0*4,6*]octadec-7-ene-4-carbonyl]-amide]
EC50 [2]: > 10 µM | Ki [3]: > 1000 nM | ring closure, yield after HPLC [4]: 16%
